{"source": "paper PMC10712727", "about": "“Safety, Tolerability, and Pharmacokinetics of Senaparib, a Novel PARP1/2 Inhibitor, in Chinese Patients With Advanced Solid Tumors: A Phase I Trial” (The Oncologist, 2023)", "tested_on": "BRCA^mut+ tumors", "assay": "Tumor response per RECIST v1.1 (ORR, DCR, DOR, PFS), BRCA^mut+ subgroup", "assay_type": "in vivo, human", "settings": "for Patients with reduced tumor size: BRCA^mut+ subgroup; for PFS, Median (95% CI): Kaplan-Meier", "from_the_text": "The dose-expansion period included 3 populations: dose groups in which at least one patient achieved complete response (CR) or partial response (PR) per RECIST v1.1[16] and 1 dose group higher (evaluated for safety), as well as the dose group at the maximum tolerated dose (MTD)/recommended phase II dose (RP2D). Each of these groups included those patients in the respective dose-escalation group plus a planned additional 10 patients (approximately 20 patients in the MTD/RP2D group) with BRCA^mut+ solid tumors (ovarian, breast, or prostate cancer were preferred, and ovarian cancer could be BRCA wild type). Patients received senaparib monotherapy orally QD or BID (50-mg dose only) over each 3-week cycle until disease progression or unacceptable toxicity.\nSafety was assessed by recording the incidence of dose-limiting toxicities (DLTs), and the incidence, nature, severity (graded per National Cancer Institute Common Terminology Criteria for Adverse Events version 4.03 [NCI CTCAE v4.03][18]), and relatedness of treatment-emergent adverse events (TEAEs). DLTs were predefined toxicities (Supplementary Table S2) recorded over the 7 days following the single-dose administration of senaparib and during the first treatment cycle (day 1-day 21) for each dose group in the dose-escalation period only. The MTD was defined as the maximum dose at which ≤1/6 patients experienced a DLT. Senaparib PK parameters were derived from blood samples collected from patients after the single administration, and at regular intervals during the first cycle of the dose-escalation and dose-expansion periods. Plasma concentrations of senaparib were determined using high-performance liquid chromatography-tandem mass spectrometry. Tumor response was assessed every 6 weeks per RECIST v1.1,[16] recording objective response rate (ORR), disease control rate (DCR), duration of response (DOR), and progression-free survival (PFS) by dose level for all patients and for those harboring BRCA^mut+ tumors.\nThere was no formal sample size calculation based on statistical hypothesis testing for this study; the planned enrolment was approximately 30-60 patients across the dose-escalation and dose-expansion cohorts. The actual number in the dose-escalation cohort was adjusted based on the number of dose cohorts required for the modified Fibonacci dose-escalation design and the determined MTD. Definitions for all analysis populations (safety, DLT, PK, and efficacy [intent-to-treat, ITT]) are provided in Supplementary Table S2. No statistical tests were performed; patient demographic and baseline characteristics, safety/tolerability, PK parameters, and efficacy were evaluated descriptively. ORR and DCR and their 95% CIs were calculated for each group using the exact probability method. Kaplan-Meier statistics were used to estimate DOR and PFS, and their 95% CIs for each dose group separately. Dose linearity was explored based on the single-dose data of area under the time-concentration curve (AUC) and maximum plasma concentration (Cmax) using the power model (Y = α × dose β) for the dose range 2-80 mg on a log-transformed scale. The following criterion was used to determine whether dose proportionality was met: if the (2-sided) 90% CI for β was wholly contained within the interval (1 + log(0.5)/log(r), 1 + log(2)/log(r)), then dose proportionality was supported. Here, r was defined as the ratio of the highest to lowest dose. All data analyses were carried out using SAS EG7.1 or higher or (for PK parameters) WinNonlin 7.0 or higher.", "key": {"[1]": {"settings": "BRCA^mut+, 26 evaluable for tumor response"}, "[2]": {"settings": "BRCA^mut+, 5 mg QD, PFS evaluable n 2"}, "[3]": {"settings": "BRCA^mut+, 10 mg QD, PFS evaluable n 1"}, "[4]": {"settings": "BRCA^mut+, 10 mg QD, evaluable n 1"}, "[5]": {"settings": "BRCA^mut+, 20 mg QD, PFS evaluable n 3"}, "[6]": {"settings": "BRCA^mut+, 20 mg QD, evaluable n 2"}, "[7]": {"settings": "BRCA^mut+, 60 mg QD, PFS evaluable n 4"}, "[8]": {"settings": "BRCA^mut+, 60 mg QD, evaluable n 4"}, "[9]": {"settings": "BRCA^mut+, 80 mg QD, DOR evaluable n 3"}, "[10]": {"settings": "BRCA^mut+, 80 mg QD, PFS evaluable n 6"}, "[11]": {"settings": "BRCA^mut+, 80 mg QD, evaluable n 6"}, "[12]": {"settings": "BRCA^mut+, 100 mg QD, DOR evaluable n 2"}, "[13]": {"settings": "BRCA^mut+, 100 mg QD, PFS evaluable n 13"}, "[14]": {"settings": "BRCA^mut+, 100 mg QD, evaluable n 11"}, "[15]": {"settings": "BRCA^mut+, 120 mg QD, PFS evaluable n 2"}, "[16]": {"settings": "BRCA^mut+, 120 mg QD, evaluable n 2"}, "[17]": {"settings": "BRCA^mut+, Total, DOR evaluable n 7"}, "[18]": {"settings": "BRCA^mut+, Total, PFS evaluable n 32"}, "[19]": {"settings": "BRCA^mut+, Total, evaluable n 26"}}}
{"smiles": "O=C(c1cc(Cn2c(=O)[nH]c(=O)c3c(F)cccc32)ccc1F)N1CCN(c2ncccn2)CC1", "note": "[Senaparib]", "values": [{"measurement": "Median DOR", "setting": "BRCA^mut+ patients, 95% CI, 39-NR", "result": 169, "unit": "days"}, {"measurement": "Median PFS", "setting": "BRCA^mut+ patients, 95% CI, 79-464", "result": 215, "unit": "days"}, {"measurement": "Patients with reduced tumor size", "setting": "non-ovarian (3/10)", "result": 30.0, "unit": "%"}, {"measurement": "Patients with reduced tumor size", "setting": "ovarian cancer (10/16)", "result": 62.5, "unit": "%"}, {"measurement": "DCR", "setting": "[1]", "result": 73.1, "unit": "%"}, {"measurement": "ORR", "setting": "[1]", "result": 26.9, "unit": "%"}, {"measurement": "DOR: Events", "setting": "BRCA^mut+, 2 mg QD, DOR evaluable n 0", "result": "0 n (%)"}, {"measurement": "PFS: Events", "setting": "BRCA^mut+, 2 mg QD, PFS evaluable n 0", "result": "0 (0) n (%)"}, {"measurement": "DOR: Events", "setting": "BRCA^mut+, 5 mg QD, DOR evaluable n 0", "result": "0 n (%)"}, {"measurement": "PFS: Events", "setting": "[2]", "result": "2 (100) n (%)"}, {"measurement": "PFS, Median (95% CI)", "setting": "[2]", "result": "254.5 (45-464) days"}, {"measurement": "DOR: Events", "setting": "BRCA^mut+, 10 mg QD, DOR evaluable n 0", "result": "0 n (%)"}, {"measurement": "PFS: Events", "setting": "[3]", "result": "1 (100) n (%)"}, {"measurement": "PFS, Median (95% CI)", "setting": "[3]", "result": "49 (49-49) days"}, {"measurement": "Complete response", "setting": "[4]", "result": "0 n (%)"}, {"measurement": "DCR (complete response+partial response+stable disease)", "setting": "[4]", "result": "0 n (%)"}, {"measurement": "ORR (complete response+partial response)", "setting": "[4]", "result": "0 (0) n (%)"}, {"measurement": "Partial response", "setting": "[4]", "result": "0 n (%)"}, {"measurement": "Stable disease (≥42 days from cycle 1 day 1)", "setting": "[4]", "result": "0 n (%)"}, {"measurement": "DOR: Events", "setting": "BRCA^mut+, 20 mg QD, DOR evaluable n 1", "result": "0 n (%)"}, {"measurement": "PFS: Events", "setting": "[5]", "result": "1 (33.3) n (%)"}, {"measurement": "PFS, Median (95% CI)", "setting": "[5]", "result": "– (39-NR)"}, {"measurement": "Complete response", "setting": "[6]", "result": "0 n (%)"}, {"measurement": "DCR (complete response+partial response+stable disease)", "setting": "[6]", "result": "1 (50.0) n (%)"}, {"measurement": "ORR (complete response+partial response)", "setting": "[6]", "result": "1 (50.0) n (%)"}, {"measurement": "Partial response", "setting": "[6]", "result": "1 (50.0) n (%)"}, {"measurement": "Stable disease (≥42 days from cycle 1 day 1)", "setting": "[6]", "result": "0 n (%)"}, {"measurement": "DOR: Events", "setting": "BRCA^mut+, 40 mg QD, DOR evaluable n 0", "result": "0 n (%)"}, {"measurement": "DOR: Events", "setting": "BRCA^mut+, 50 mg BID, DOR evaluable n 0", "result": "0 n (%)"}, {"measurement": "PFS: Events", "setting": "BRCA^mut+, 50 mg BID, PFS evaluable n 1", "result": "0 (0) n (%)"}, {"measurement": "DOR: Events", "setting": "BRCA^mut+, 60 mg QD, DOR evaluable n 1", "result": "0 n (%)"}, {"measurement": "PFS: Events", "setting": "[7]", "result": "2 (50.0) n (%)"}, {"measurement": "PFS, Median (95% CI)", "setting": "[7]", "result": "255 (127-NR) days"}, {"measurement": "Complete response", "setting": "[8]", "result": "0 n (%)"}, {"measurement": "DCR (complete response+partial response+stable disease)", "setting": "[8]", "result": "4 (100) n (%)"}, {"measurement": "ORR (complete response+partial response)", "setting": "[8]", "result": "1 (25.0) n (%)"}, {"measurement": "Partial response", "setting": "[8]", "result": "1 (25.0) n (%)"}, {"measurement": "Stable disease (≥42 days from cycle 1 day 1)", "setting": "[8]", "result": "3 (75.0) n (%)"}, {"measurement": "DOR, Median (95% CI)", "setting": "[9]", "result": "120 (39-169) days"}, {"measurement": "DOR: Events", "setting": "[9]", "result": "3 (100) n (%)"}, {"measurement": "PFS: Events", "setting": "[10]", "result": "5 (83.3) n (%)"}, {"measurement": "PFS, Median (95% CI)", "setting": "[10]", "result": "167 (40-216) days"}, {"measurement": "Complete response", "setting": "[11]", "result": "0 n (%)"}, {"measurement": "DCR (complete response+partial response+stable disease)", "setting": "[11]", "result": "5 (83.3) n (%)"}, {"measurement": "ORR (complete response+partial response)", "setting": "[11]", "result": "3 (50.0) n (%)"}, {"measurement": "Partial response", "setting": "[11]", "result": "3 (50.0) n (%)"}, {"measurement": "Stable disease (≥42 days from cycle 1 day 1)", "setting": "[11]", "result": "2 (33.3) n (%)"}, {"measurement": "DOR, Median (95% CI)", "setting": "[12]", "result": "– (169-NR)"}, {"measurement": "DOR: Events", "setting": "[12]", "result": "1 (50.0) n (%)"}, {"measurement": "PFS: Events", "setting": "[13]", "result": "5 (38.5) n (%)"}, {"measurement": "PFS, Median (95% CI)", "setting": "[13]", "result": "289 (42-NR) days"}, {"measurement": "Complete response", "setting": "[14]", "result": "0 n (%)"}, {"measurement": "DCR (complete response+partial response+stable disease)", "setting": "[14]", "result": "8 (72.7) n (%)"}, {"measurement": "ORR (complete response+partial response)", "setting": "[14]", "result": "2 (18.2) n (%)"}, {"measurement": "Partial response", "setting": "[14]", "result": "2 (18.2) n (%)"}, {"measurement": "Stable disease (≥42 days from cycle 1 day 1)", "setting": "[14]", "result": "6 (54.5) n (%)"}, {"measurement": "DOR: Events", "setting": "BRCA^mut+, 120 mg QD, DOR evaluable n 0", "result": "0 n (%)"}, {"measurement": "PFS: Events", "setting": "[15]", "result": "1 (50.0) n (%)"}, {"measurement": "PFS, Median (95% CI)", "setting": "[15]", "result": "– (48-NR)"}, {"measurement": "Complete response", "setting": "[16]", "result": "0 n (%)"}, {"measurement": "DCR (complete response+partial response+stable disease)", "setting": "[16]", "result": "1 (50.0) n (%)"}, {"measurement": "ORR (complete response+partial response)", "setting": "[16]", "result": "0 (0) n (%)"}, {"measurement": "Partial response", "setting": "[16]", "result": "0 n (%)"}, {"measurement": "Stable disease (≥42 days from cycle 1 day 1)", "setting": "[16]", "result": "1 (50.0) n (%)"}, {"measurement": "DOR, Median (95% CI)", "setting": "[17]", "result": "169 (39-NR) days"}, {"measurement": "DOR: Events", "setting": "[17]", "result": "4 (57.1) n (%)"}, {"measurement": "PFS: Events", "setting": "[18]", "result": "17 (53.1) n (%)"}, {"measurement": "PFS, Median (95% CI)", "setting": "[18]", "result": "215 (79-464) days"}, {"measurement": "Complete response", "setting": "[19]", "result": "0 n (%)"}, {"measurement": "DCR (complete response+partial response+stable disease)", "setting": "[19]", "result": "19 (73.1) n (%)"}, {"measurement": "ORR (complete response+partial response)", "setting": "[19]", "result": "7 (26.9) n (%)"}, {"measurement": "Partial response", "setting": "[19]", "result": "7 (26.9) n (%)"}, {"measurement": "Stable disease (≥42 days from cycle 1 day 1)", "setting": "[19]", "result": "12 (46.2) n (%)"}]}
